# Experiments:
# AB1053 OXA-72 = experiment: Meropenem potentiation assay (MPC@8) and meropenem MIC; assay type: cell-based, Acinetobacter baumannii; details: A. baumannii strain AB1053 OXA-72
# Procedure: (§1) β-lactamase inhibitors were also tested for their ability to potentiate the carbapenem meropenem against strains of Acinetobacter baumannii producing class D (OXA-23 and OXA-72) carbapenemases. […] Meropenem was present in the test medium at 8 μg/mL. Compounds were tested at concentrations up to 20 μg/mL. In this assay, potency of compounds was reported as the minimum concentration of BLI required to inhibit growth of bacteria in the presence of 8 μg/mL of meropenem (MPC@8).
# AB1054 OXA-23 = experiment: as above; assay type: cell-based, Acinetobacter baumannii
# Procedure: as §1
# ec302 TEM-10 [1] = experiment: Tigemonam potentiation assay (MPC@4) and tigemonam MIC; assay type: cell-based; details: strain ec302 TEM-10
# Procedure: (§2) Selected β-lactamase inhibitors were also tested for their ability to potentiate the monobactam tigemonam. […] Tigemonam was present in the test medium at 4 μg/mL. Compounds were tested at concentrations up to 20 μg/mL. In this assay, potency of compounds was reported as the minimum concentration of BLI required to inhibit growth of bacteria in the presence of 4 μg/mL of tigemonam (MPC@4). Table 2 summarizes the BLI potency of tigemonam potentiation (MPC@4) for various strains overexpressing class A (ESBL) and class C β-lactamases.
# KP1005 CTX-M-14 [2] = experiment: as above; assay type: cell-based; details: strain KP1005 CTX-M-14
# Procedure: as §2
# EC1010 CMY-6 [3] = experiment: as above; assay type: cell-based; details: strain EC1010 CMY-6
# Procedure: as §2
# KP1009 CTX-M-15 [4] = experiment: as above; assay type: cell-based; details: strain KP1009 CTX-M-15
# Procedure: as §2
# ec308 SHV-5 [5] = experiment: as above; assay type: cell-based; details: strain ec308 SHV-5
# Procedure: as §2
# ECL1002 [6] = experiment: as above; assay type: cell-based; details: strain ECL1002
# Procedure: as §2
# KP1010 SHV-12 [7] = experiment: as above; assay type: cell-based; details: strain KP1010 SHV-12
# Procedure: as §2
# [8] = test system: strains producing class A (KPC), class D (OXA-48), and class B (NDM-1 and VIM-1) carbapenemases; experiment: Biapenem MIC of the test strains (panel); assay type: cell-based; details: span over all test strains of Table 3
# Procedure: (§3) β-lactamase inhibitors were also tested for their ability to potentiate the carbapenem biapenem against strains producing class A (KPC), class D (OXA-48), and class B (metallo β-lactamases, NDM-1 and VIM-1) carbapenemases. The potentiation effect was observed as the ability of BLI compounds to inhibit growth in the presence of a sub-inhibitory concentration of biapenem. […] Biapenem was present in the test medium at 1 μg/mL. Compounds were tested at concentrations up to 20 μg/mL. In this assay, potency of compounds was reported as the minimum concentration of BLI required to inhibit growth of bacteria in the presence of 1 μg/mL of biapenem (MPC@1). Table 3 summarizes the BLI potency of biapenem potentiation (MPC@1) for four strains overexpressing class A (KPC), class D (OXA-48), and class B (NDM-1 and VIM-1) carbapenemases. Biapenem MIC for each strain is also shown.
# KP1081 NDM-1 = experiment: Biapenem potentiation assay (MPC@1) and biapenem MIC; assay type: cell-based; details: strain KP1081 NDM-1
# Procedure: as §3
# KP1086 OXA-48 = experiment: as above; assay type: cell-based; details: strain KP1086 OXA-48
# Procedure: as §3
# KP1004 KPC-2 [9] = experiment: as above; assay type: cell-based; details: strain KP1004 KPC-2
# Procedure: as §3
# ec302 TEM-10 [10] = experiment: Aztreonam potentiation assay (MPC@4) and aztreonam MIC; assay type: cell-based; details: strain ec302 TEM-10
# Procedure: (§4) The potency and spectrum of β-lactamase inhibitors (BLIs) was determined by assessing their aztreonam potentiation activity in a dose titration potentiation assay using strains of various bacteria that are resistant to aztreonam due to expression of various β-lactamases. Aztreonam is a monobactam antibiotic and is hydrolyzed by the majority of β-lactamases that belong to class A or C (but not class B or D). The potentiation effect was observed as the ability of BLI compounds to inhibit growth in the presence of sub-inhibitory concentration of aztreonam. […] Aztreonam was present in the test medium at 4 μg/mL. Compounds were tested at concentrations up to 20 μg/mL. In this assay, potency of compounds was reported as the minimum concentration of BLI required to inhibit growth of bacteria in the presence of 4 μg/mL of aztreonam (MPC@4). Table 1 summarizes the BLI potency of aztreonam potentiation (MPC@4) for various strains overexpressing class A (ESBL and KPC), and class C β-lactamases. Aztreonam MIC for each strain is also shown.
# KP1005 CTX-M-14 [11] = experiment: as above; assay type: cell-based
# Procedure: as §4
# EC1010 CMY-6 [12] = experiment: as above; assay type: cell-based; details: strain EC1010 CMY-6
# Procedure: as §4
# KP1009 CTX-M-15 [13] = experiment: as above; assay type: cell-based; details: strain KP1009 CTX-M-15
# Procedure: as §4
# ec308 SHV-5 [14] = experiment: as above; assay type: cell-based; details: strain ec308 SHV-5
# Procedure: as §4
# ECL1002 [15] = experiment: as above; assay type: cell-based; details: strain ECL1002
# Procedure: as §4
# KP1004 KPC-2 [16] = experiment: as above; assay type: cell-based
# Procedure: as §4
# KP1010 SHV-12 [17] = experiment: as above; assay type: cell-based; details: strain KP1010 SHV-12
# Procedure: as §4
# KP1054 VIM-1 = experiment: Biapenem potentiation assay (MPC@1) and biapenem MIC; assay type: cell-based; details: minimum BLI concentration inhibiting growth with biapenem 1 μg/mL; strain KP1054 VIM-1; tested up to 20 μg/mL
# Procedure: as §3
# [18] = minimum BLI concentration inhibiting growth with tigemonam 4 μg/mL, tested up to 20 μg/mL
# [19] = minimum BLI concentration inhibiting growth with aztreonam 4 μg/mL, tested up to 20 μg/mL
# [20] = minimum BLI concentration inhibiting growth with biapenem 1 μg/mL, tested up to 20 μg/mL
smiles,measurement,setting,value
C[C@@H](O)[C@H]1C(=O)N2C(C(=O)O)=C(S[C@@H]3CN[C@H](C(=O)N(C)C)C3)[C@H](C)[C@H]12 [Meropenem],MIC,"AB1053 OXA-72; Acinetobacter baumannii, meropenem alone",> 64 µg/mL
same,MIC,"AB1054 OXA-23; Acinetobacter baumannii, read-out: Meropenem MIC",32 µg/mL
CC1(C)[C@H](NC(=O)/C(=N\OCC(=O)O)c2csc(N)n2)C(=O)N1OS(=O)(=O)O [Tigemonam],Tigemonam MIC,ec302 TEM-10 [1]; tigemonam alone,>64 µg/mL
same,Tigemonam MIC,KP1005 CTX-M-14 [2]; tigemonam alone,>64 µg/mL
same,Tigemonam MIC,EC1010 CMY-6 [3]; tigemonam alone,16 µg/mL
same,Tigemonam MIC,KP1009 CTX-M-15 [4]; tigemonam alone,>64 µg/mL
same,Tigemonam MIC,ec308 SHV-5 [5]; tigemonam alone,>64 µg/mL
same,Tigemonam MIC,ECL1002 [6]; tigemonam alone,32 µg/mL
same,Tigemonam MIC,KP1010 SHV-12 [7]; tigemonam alone,>64 µg/mL
C[C@@H](O)[C@H]1C(=O)N2C(C(=O)[O-])=C(SC3Cn4cnc[n+]4C3)[C@H](C)[C@H]12 (stereo partly drawn) [Biapenem],MIC,[8],16 to 32 µg/mL
same,MIC,KP1081 NDM-1; biapenem alone,16 µg/mL
same,MIC,KP1086 OXA-48; biapenem alone,16 µg/mL
same,MIC,KP1004 KPC-2 [9]; biapenem alone,32 µg/mL
C[C@H]1[C@H](NC(=O)/C(=N\OC(C)(C)C(=O)O)c2csc(N)n2)C(=O)N1S(=O)(=O)O [Aztreonam],MIC,ec302 TEM-10 [10]; aztreonam alone,128 µg/mL
same,MIC,KP1005 CTX-M-14 [11]; read-out: Aztreonam MIC,> 128 µg/mL
same,MIC,EC1010 CMY-6 [12]; aztreonam alone,> 128 µg/mL
same,MIC,KP1009 CTX-M-15 [13]; aztreonam alone,> 128 µg/mL
same,MIC,ec308 SHV-5 [14]; aztreonam alone,> 128 µg/mL
same,MIC,ECL1002 [15]; aztreonam alone,64 µg/mL
same,MIC,KP1004 KPC-2 [16]; read-out: Aztreonam MIC,> 128 µg/mL
same,MIC,KP1010 SHV-12 [17]; aztreonam alone,64 µg/mL
"COc1ccc2c(c1C(=O)O)OB(O)CC2Cn1cc(CO)nn1 (stereo not drawn) [Compound 16, 2-hydroxy-4-[[4-(hydroxymethyl)triazol-1-yl]methyl]-7-methoxy-3,4-dihydro-1,2-benzoxaborinine-8-carboxylic Acid]",TIG MPC4 TEM-10 ec302,ec302 TEM-10 [1]; [18],Y (Y = 5 μg/mL < MPC@4 ≤ 20 μg/mL)
same,TIG MPC4 CTX-M-14 KP1005,KP1005 CTX-M-14 [2]; [18],Y (Y = 5 μg/mL < MPC@4 ≤ 20 μg/mL)
same,TIG MPC4 CMY-6 EC1010,EC1010 CMY-6 [3]; [18],X (X = MPC@4 ≤ 5 μg/mL)
same,TIG MPC4 CTX-M-15 KP1009,KP1009 CTX-M-15 [4]; [18],X (X = MPC@4 ≤ 5 μg/mL)
same,TIG MPC4 SHV-5 ec308,ec308 SHV-5 [5]; [18],X (X = MPC@4 ≤ 5 μg/mL)
same,TIG MPC4 ECL1002,ECL1002 [6]; [18],X (X = MPC@4 ≤ 5 μg/mL)
same,TIG MPC4 SHV-12 KP1010,KP1010 SHV-12 [7]; [18],X (X = MPC@4 ≤ 5 μg/mL)
same,AZT MPC4 TEM-10 ec302,ec302 TEM-10 [10]; [19],X (X = MPC@4 ≤ 5 μg/mL)
same,AZT MPC4 CTX-M-14 KP1005,"KP1005 CTX-M-14 [11]; minimum BLI concentration inhibiting growth with aztreonam 4 μg/mL, strain KP1005 CTX-M-14, tested up to 20 μg/mL",X (X = MPC@4 ≤ 5 μg/mL)
same,AZT MPC4 CMY-6 EC1010,EC1010 CMY-6 [12]; [19],X (X = MPC@4 ≤ 5 μg/mL)
same,AZT MPC4 CTX-M-15 KP1009,KP1009 CTX-M-15 [13]; [19],X (X = MPC@4 ≤ 5 μg/mL)
same,AZT MPC4 SHV-5 ec308,ec308 SHV-5 [14]; [19],X (X = MPC@4 ≤ 5 μg/mL)
same,AZT MPC4 ECL1002,ECL1002 [15]; [19],X (X = MPC@4 ≤ 5 μg/mL)
same,AZT MPC4 KPC-2 KP1004,"KP1004 KPC-2 [16]; minimum BLI concentration inhibiting growth with aztreonam 4 μg/mL, strain KP1004 KPC-2, tested up to 20 μg/mL",X (X = MPC@4 ≤ 5 μg/mL)
same,AZT MPC4 SHV-12 KP1010,KP1010 SHV-12 [17]; [19],X (X = MPC@4 ≤ 5 μg/mL)
same,MPM MPC8 AB1053 OXA-72,"AB1053 OXA-72; minimum BLI concentration inhibiting growth with meropenem 8 μg/mL, tested up to 20 μg/mL",X (X = MPC@1 ≤ 5 μg/mL)
same,MPM MPC8 AB1054 OXA-23,"AB1054 OXA-23; minimum BLI concentration inhibiting growth with meropenem 8 μg/mL, A. baumannii strain AB1054 OXA-23, tested up to 20 μg/mL",Y (Y = 5 μg/mL < MPC@1 ≤ 20 μg/mL)
same,BPM MPC1 KP1081 NDM-1,KP1081 NDM-1; [20],Y (Y = 5 μg/mL < MPC@1 ≤ 20 μg/mL)
same,BPM MPC1 OXA-48 KP1086,KP1086 OXA-48; [20],Y (Y = 5 μg/mL < MPC@1 ≤ 20 μg/mL)
same,BPM MPC1 KP1004 KPC-2,KP1004 KPC-2 [9]; [20],X (X = MPC@1 ≤ 5 μg/mL)
same,BPM MPC1 KP1054 VIM-1,KP1054 VIM-1,Y (Y = 5 μg/mL < MPC@1 ≤ 20 μg/mL)
